Our source for the IC50 and melting point values is patent publication US7148249B2, “Indolinones substituted by heterocycles, the preparation thereof and their use as medicaments” (Boehringer Ingelheim Pharma GmbH & Co. KG, priority 2002, dated 2006).

Molecules are shown by their SMILES. pIC50: −log10 of the molar value.

Data set [1] concerns Human umbilical endothelial cells (HUVEC). Description: Inhibition of VEGF165-stimulated HUVEC proliferation (3H-thymidine incorporation). The format is cell-based. To be noted: Homo sapiens; HUVEC proliferation stimulated with 5 ng/ml VEGF165 and 10 μg/ml heparin; 76 h incubation + 16 h 3H-thymidine. The procedure, abridged:
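Growth-factor-starved HUVEC (16 h) stimulated with 5 ng/ml VEGF165 plus 10 μg/ml heparin, with compounds at ≤0.3% DMSO, for 76 h at 37 °C; 3H-thymidine then added for 16 h, unstimulated background subtracted, IC50 from proliferation as % of uninhibited control.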

In turn, `CCCS(=O)(=O)N(CCN(C)C)c1ccc(N/C(=C2\C(=O)Nc3cc(Cl)ccc32)c2ccncc2)cc1` [(ax), 3-(Z)-{1-(4-[N-(propanesulphonyl)-N-(2-dimethylaminoethyl)-amino]-phenylamino)-1-(4-pyridyl)-methylene}-6-chloro-2-indolinone] displayed a melting point of 228 to 232 °C. Further, the negative logarithm of the IC50 (pIC50) in data set [1] was 7.43.

Regarding `CN(C)Cc1ccc(N/C(=C2\C(=O)Nc3ccccc32)c2ccc3nc[nH]c3c2)cc1` [(ag), 3-(Z)-{1-[4-(dimethylaminomethyl)-phenylamino]-1-(benzimidazol-5-yl)-methylene}-2-indolinone], the melting point is 273 to 277 °C (dec.). For the same compound, in data set [1], the pIC50 was 7.51.
